Columns and labels:
[1] = Metabolic stability in bile fistula rat model assessed as intact drug level recovered in bile at 1 umol/min/kg administered intraduodenally over 1 hr; assay type: ADME; details: in vivo, other
[2] = Metabolic stability in bile fistula rat model assessed as intact drug level recovered in bile at 1 umol/min/kg, iv over 1 hr; assay type: ADME, organism-based; details: in vivo
[3] = Metabolic stability in human stool broth culture assessed as unmodified drug level after 12 hrs; assay type: ADME; details: read-out: Stability

SMILES	Stability [1] [%Idose]	Stability [2] [%Idose]	remaining at 12 h [3] [%]
CC[C@H]1[C@@H](O)[C@@H]2[C@H](C[C@H](O)[C@]3(C)[C@@H]([C@H](C)C[C@@H](C)C(=O)O)CC[C@@H]23)[C@@]2(C)CC[C@@H](O)C[C@@H]12	68	65	
CC[C@H]1[C@@H](O)[C@@H]2[C@H](C[C@H](O)[C@]3(C)[C@@H]([C@H](C)C[C@H](C)C(=O)O)CC[C@@H]23)[C@@]2(C)CC[C@@H](O)C[C@@H]12	94	93	> 95
C[C@H](CCC(=O)O)[C@H]1CC[C@H]2[C@@H]3[C@H](O)C[C@@H]4C[C@H](O)CC[C@]4(C)[C@H]3CC[C@]12C [CHENODIOL]	3	4	
C[C@H](CCC(=O)O)[C@H]1CC[C@H]2[C@@H]3[C@H](O)C[C@@H]4C[C@H](O)CC[C@]4(C)[C@H]3C[C@H](O)[C@]12C [CHOLIC ACID]	12	8	

— ChEMBL document CHEMBL1154755, “Discovery of 6alpha-ethyl-23(S)-methylcholic acid (S-EMCA, INT-777) as a potent and selective agonist for the TGR5 receptor, a novel target for diabesity” (J Med Chem, 2009)
